Here are results for 15 compounds from ChEMBL document CHEMBL3045406, “Enantioselective Relieving Activity of α-Methylbenzylphenylureas toward Bensulfuron-methyl Injury to Rice (Oryza sativa)” (Biosci Biotechnol Biochem, 1999).

Molecules are shown by their SMILES.

The test system of data set [1] is Oryza sativa. In words: Relieving activity against bensulfuron-methyl induced injury to Oryza sativa (rice) assessed as growth rate at 0.1 uM (Rbv = 46 to 53%). Type of data set: functional.
The nature of data set [2]: Hydrophobicity, log K of the compound. Type of data set: physicochemical. The settings on record: octanol/water.
Data set [3] relates to Oryza sativa. Briefly: Effect on Oryza sativa (rice) assessed as growth rate at 0.1 uM relative to control. Type of data set: organism-based. The conditions noted are these: in vivo.
Data set [4] relates to Oryza sativa. In words: Safener indices, ratio of compound effect of Oryza sativa (rice) growth rate to relieving activity against bensulfuron-methyl induced injury to Oryza sativa growth rate at 10 uM.
Data set [5] deals with Oryza sativa. In words: Effect on Oryza sativa (rice) assessed as growth rate at 10 uM relative to control. The settings on record: in vivo. Type of data set: organism-based.
The test system of data set [6] is Oryza sativa. Briefly: Relieving activity against bensulfuron-methyl induced injury to Oryza sativa (rice) assessed as growth rate at 10 uM (Rbv = 46 to 53%). The data set is classed as functional.
For data set [7], the system named is Oryza sativa. Briefly: Safener indices, ratio of compound effect of Oryza sativa (rice) growth rate to relieving activity against bensulfuron-methyl induced injury to Oryza sativa growth rate at 1 uM.
Data set [8] relates to Oryza sativa. In words: Relieving activity against bensulfuron-methyl induced injury to Oryza sativa (rice) assessed as growth rate at 1 uM (Rbv = 46 to 53%). The data set is classed as functional.
Data set [9] relates to Oryza sativa. Briefly: Safener indices, ratio of compound effect of Oryza sativa (rice) growth rate to relieving activity against bensulfuron-methyl induced injury to Oryza sativa growth rate at 0.1 uM.
Data set [10] has as its system Oryza sativa. In words: Effect on Oryza sativa (rice) assessed as growth rate at 1 uM relative to control. The settings on record: in vivo. The data set is classed as organism-based.

As to `C[C@@H](NC(=O)Nc1ccc(Cl)c(Cl)c1)c1ccccc1`, the Activity was determined as 57% in the data set with Oryza sativa [1]; 98% in the data set with Oryza sativa [3]; 93% with Oryza sativa [5]; 77% in the data set on Oryza sativa [6]; 66% in the data set with Oryza sativa [8]; 96% in the data set on Oryza sativa [10]. Also, the “log K” value in data set [2] is recorded as 0.61. The Ratio in the data set on Oryza sativa [4] turned out to be 56; in the data set on Oryza sativa [7], 34; with Oryza sativa [9], 15.
As for `C[C@H](NC(=O)Nc1ccc(Cl)c(Cl)c1)c1ccccc1`, the Activity in the data set with Oryza sativa [1] is reported as 70%; with Oryza sativa [3], 98%; with Oryza sativa [5], 99%; in the data set on Oryza sativa [6], 90%; with Oryza sativa [8], 78%; with Oryza sativa [10] it was 97%. For the same compound, the “log K” value in data set [2] is recorded as 0.61. The Ratio amounted to 81 in the data set with Oryza sativa [4], 57 in the data set on Oryza sativa [7] and 39 with Oryza sativa [9].
Regarding `C[C@@H](NC(=O)Nc1cccc(C(F)(F)F)c1F)c1ccccc1`, the Activity in the data set with Oryza sativa [1] was 68%; in the data set with Oryza sativa [3] it was 99%; in the data set with Oryza sativa [5], 98%; in the data set with Oryza sativa [6], 96%; in the data set with Oryza sativa [8], 90%; in the data set on Oryza sativa [10], 99%. Also, in data set [2], the “log K” value is reported as 0.624. For the same compound, the Ratio was 92 with Oryza sativa [4], 79 in the data set with Oryza sativa [7] and 33 in the data set with Oryza sativa [9].
As for `C[C@H](NC(=O)Nc1cccc(C(F)(F)F)c1F)c1ccccc1`, the Activity was determined as 76% in the data set with Oryza sativa [1]; 99% with Oryza sativa [3]; 100% with Oryza sativa [5]; 98% in the data set with Oryza sativa [6]; 92% with Oryza sativa [8]; 98% in the data set with Oryza sativa [10]. Besides, in data set [2], the “log K” value is listed as 0.624. Besides, the Ratio in the data set on Oryza sativa [4] was determined as 96; in the data set on Oryza sativa [7], 84; with Oryza sativa [9], 51.
With `C[C@@H](NC(=O)Nc1cc(C(F)(F)F)ccc1F)c1ccccc1`, the Activity with Oryza sativa [1] amounted to 53%; with Oryza sativa [3], 87%; with Oryza sativa [5] it was 60%; in the data set on Oryza sativa [6], 59%; with Oryza sativa [8] it was 55%; with Oryza sativa [10] it was 70%. The “log K” value in [2] is 0.64. The figures for the Ratio with Oryza sativa [4], with Oryza sativa [7] and with Oryza sativa [9] were 40, 28 and 13, respectively.
Take `C[C@H](NC(=O)Nc1cc(C(F)(F)F)ccc1F)c1ccccc1`: the Activity in the data set with Oryza sativa [1] was 64%; in the data set on Oryza sativa [3], 98%; in the data set with Oryza sativa [5], 87%; in the data set with Oryza sativa [6] it was 84%; in the data set with Oryza sativa [8], 79%; in the data set with Oryza sativa [10], 89%. For the same compound, the “log K” value in data set [2] came to 0.64. The results for the Ratio in the data set on Oryza sativa [4], in the data set with Oryza sativa [7] and in the data set with Oryza sativa [9] were 70, 59 and 26, respectively.
For the compound `Cc1cc(F)ccc1NC(=O)N[C@H](C)c1ccccc1`, the Activity in the data set with Oryza sativa [1] was determined as 54%; in the data set with Oryza sativa [3], 100%; in the data set on Oryza sativa [5], 94%; with Oryza sativa [6], 74%; with Oryza sativa [8], 57%; in the data set with Oryza sativa [10], 100%. For the same compound, the “log K” value in [2] was 0.356. In addition, the Ratio is 48 in the data set with Oryza sativa [4], 9 with Oryza sativa [7] and 3 with Oryza sativa [9].
For `Cc1cc(F)ccc1NC(=O)N[C@@H](C)c1ccccc1`, the Activity with Oryza sativa [1] was 56%; in the data set with Oryza sativa [3] it was 99%; in the data set with Oryza sativa [5] it was 96%; in the data set on Oryza sativa [6], 81%; in the data set with Oryza sativa [8] it was 71%; with Oryza sativa [10], 98%. Further, in data set [2], the “log K” value worked out at 0.356. Besides, the values for the Ratio in the data set with Oryza sativa [4], with Oryza sativa [7] and with Oryza sativa [9] were 62, 40 and 9, respectively.
For `Cc1ccc(NC(=O)N[C@H](C)c2ccccc2)c(F)c1`, the Activity stood at 57% in the data set with Oryza sativa [1]; 98% with Oryza sativa [3]; 99% in the data set on Oryza sativa [5]; 89% in the data set on Oryza sativa [6]; 79% in the data set on Oryza sativa [8]; 99% with Oryza sativa [10]. The “log K” value in data set [2] is reported as 0.459. The figures for the Ratio in the data set on Oryza sativa [4], in the data set on Oryza sativa [7] and with Oryza sativa [9] were 78, 55 and 11, respectively.
As for `Cc1ccc(NC(=O)N[C@@H](C)c2ccccc2)c(F)c1`, the Activity is listed as 77% in the data set on Oryza sativa [1]; 100% with Oryza sativa [3]; 100% in the data set with Oryza sativa [5]; 95% in the data set with Oryza sativa [6]; 87% in the data set on Oryza sativa [8]; 99% in the data set with Oryza sativa [10]. Besides, the “log K” value in data set [2] is reported as 0.459. Further, the figures for the Ratio with Oryza sativa [4], in the data set on Oryza sativa [7] and with Oryza sativa [9] were 89, 72 and 53, respectively.
`C[C@H](NC(=O)Nc1cc(Cl)ccc1Cl)c1ccccc1`: the Activity with Oryza sativa [1] is 79%; in the data set with Oryza sativa [3], 100%; in the data set on Oryza sativa [5], 100%; in the data set on Oryza sativa [6], 91%; in the data set on Oryza sativa [8], 85%; with Oryza sativa [10], 99%. The “log K” value in data set [2] worked out at 0.704. For the same compound, the figures for the Ratio in the data set on Oryza sativa [4], in the data set on Oryza sativa [7] and with Oryza sativa [9] were 82, 69 and 56, respectively.
Consider `C[C@@H](NC(=O)Nc1c(Cl)cccc1Cl)c1ccccc1`, for which the Activity in the data set with Oryza sativa [1] worked out at 57%; in the data set on Oryza sativa [3] it was 100%; with Oryza sativa [5], 100%; in the data set on Oryza sativa [6] it was 61%; in the data set with Oryza sativa [8], 61%; with Oryza sativa [10], 99%. In addition, in data set [2], the “log K” value was determined as 0.326. Besides, the Ratio in the data set with Oryza sativa [4] amounted to 21; with Oryza sativa [7] it was 19; with Oryza sativa [9], 12.
Take `C[C@H](NC(=O)Nc1c(Cl)cccc1Cl)c1ccccc1`: the Activity in the data set on Oryza sativa [1] is listed as 62%; with Oryza sativa [3] it was 100%; in the data set with Oryza sativa [5], 99%; with Oryza sativa [6], 74%; in the data set with Oryza sativa [8], 69%; in the data set with Oryza sativa [10], 99%. Besides, the “log K” value in data set [2] amounted to 0.326. The Ratio in the data set with Oryza sativa [4] is reported as 47; with Oryza sativa [7], 36; in the data set on Oryza sativa [9], 21.
`C[C@@H](NC(=O)Nc1cc(Cl)cc(Cl)c1)c1ccccc1`: the Activity was 58% in the data set with Oryza sativa [1]; 99% in the data set with Oryza sativa [3]; 99% in the data set on Oryza sativa [5]; 69% with Oryza sativa [6]; 63% in the data set with Oryza sativa [8]; 99% in the data set on Oryza sativa [10]. The “log K” value in data set [2] came to 0.703. The Ratio worked out at 37 with Oryza sativa [4], 25 in the data set with Oryza sativa [7] and 14 in the data set with Oryza sativa [9].
On to `C[C@H](NC(=O)Nc1cc(Cl)cc(Cl)c1)c1ccccc1`, for which the Activity with Oryza sativa [1] was determined as 74%; in the data set with Oryza sativa [3], 99%; in the data set on Oryza sativa [5], 99%; in the data set on Oryza sativa [6], 88%; with Oryza sativa [8] it was 80%; in the data set with Oryza sativa [10], 100%. For the same compound, the “log K” value in [2] was determined as 0.703. The Ratio is listed as 76 in the data set on Oryza sativa [4], 59 in the data set on Oryza sativa [7] and 46 in the data set with Oryza sativa [9].
